Test results from article PMC2991053 (Chemistry & biology, 2010).
Where two headings read alike, the source gives them in different places.

Assays:
EcIMPDH = EcIMPDH (Escherichia coli, UniProt P0ADG7); experiment: IMPDH inhibition, E. coli enzyme; format: biochemical
HpIMPDH = target: T1, HpIMPDH (Helicobacter pylori, UniProt P56088); experiment: IMPDH inhibition, H. pylori enzyme; format: biochemical
T1 sequence (P56088 1-481): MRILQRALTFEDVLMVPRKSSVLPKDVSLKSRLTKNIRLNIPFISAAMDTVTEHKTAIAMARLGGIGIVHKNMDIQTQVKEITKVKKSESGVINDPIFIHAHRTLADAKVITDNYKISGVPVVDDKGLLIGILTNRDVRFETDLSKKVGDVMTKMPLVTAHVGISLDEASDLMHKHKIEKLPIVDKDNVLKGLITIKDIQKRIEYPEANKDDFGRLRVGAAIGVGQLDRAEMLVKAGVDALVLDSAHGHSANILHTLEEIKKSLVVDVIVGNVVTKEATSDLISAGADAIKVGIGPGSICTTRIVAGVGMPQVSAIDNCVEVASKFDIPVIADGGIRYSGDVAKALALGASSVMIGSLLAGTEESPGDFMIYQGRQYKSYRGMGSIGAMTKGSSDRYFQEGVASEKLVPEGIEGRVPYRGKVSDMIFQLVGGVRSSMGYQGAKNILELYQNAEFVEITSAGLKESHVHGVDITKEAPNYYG

TfIMPDH = TfIMPDH (Tritrichomonas foetus, UniProt P50097); conditions: cited from earlier work; for Ki: TfIMPDH, ref Riera, et al., 2008
EcIMPDH-S250A/L444Y = EcIMPDH-S250A/L444Y (Escherichia coli, UniProt P0ADG7, L444Y/S250A); experiment: biochemical
BbIMPDH = target: T2, BbIMPDH (Borreliella burgdorferi, UniProt P49058); experiment: IMPDH inhibition, B. burgdorferi enzyme; format: biochemical
T2 sequence (P49058 1-404): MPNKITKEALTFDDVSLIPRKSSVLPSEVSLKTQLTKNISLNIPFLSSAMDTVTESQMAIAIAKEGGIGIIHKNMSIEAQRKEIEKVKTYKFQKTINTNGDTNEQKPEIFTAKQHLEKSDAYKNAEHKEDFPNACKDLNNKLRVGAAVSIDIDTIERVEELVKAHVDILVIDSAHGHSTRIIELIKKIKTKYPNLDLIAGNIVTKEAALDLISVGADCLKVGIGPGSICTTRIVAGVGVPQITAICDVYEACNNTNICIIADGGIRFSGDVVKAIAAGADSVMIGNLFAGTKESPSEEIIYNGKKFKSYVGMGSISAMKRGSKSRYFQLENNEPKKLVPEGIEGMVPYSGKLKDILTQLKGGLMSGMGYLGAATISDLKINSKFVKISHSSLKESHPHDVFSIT

CpIMPDH = target: T3, CpIMPDH (Cryptosporidium parvum, UniProt Q8T6T2); conditions: cited from earlier work
T3 sequence (Q8T6T2 1-400): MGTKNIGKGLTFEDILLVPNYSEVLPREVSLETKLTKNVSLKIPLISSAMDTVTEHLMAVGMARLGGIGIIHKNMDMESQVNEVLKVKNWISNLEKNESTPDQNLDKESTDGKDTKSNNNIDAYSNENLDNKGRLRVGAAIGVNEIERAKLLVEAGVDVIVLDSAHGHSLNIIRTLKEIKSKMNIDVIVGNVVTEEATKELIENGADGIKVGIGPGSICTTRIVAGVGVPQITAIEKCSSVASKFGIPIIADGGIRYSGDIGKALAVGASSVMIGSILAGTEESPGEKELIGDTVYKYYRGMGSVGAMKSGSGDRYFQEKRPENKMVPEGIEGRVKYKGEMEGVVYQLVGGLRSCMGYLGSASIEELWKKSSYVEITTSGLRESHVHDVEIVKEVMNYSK

EcIMPDH-S250A = EcIMPDH-S250A (Escherichia coli, UniProt P0ADG7, S250A); experiment: biochemical
LdIMPDH = LdIMPDH (Leishmania donovani, UniProt P21620); experiment: IMPDH inhibition, L. donovani enzyme; format: biochemical
SpIMPDH = SpIMPDH (Streptococcus pyogenes, UniProt P0C0H6); experiment: biochemical
Sequence of SpIMPDH (P0C0H6 whole entry): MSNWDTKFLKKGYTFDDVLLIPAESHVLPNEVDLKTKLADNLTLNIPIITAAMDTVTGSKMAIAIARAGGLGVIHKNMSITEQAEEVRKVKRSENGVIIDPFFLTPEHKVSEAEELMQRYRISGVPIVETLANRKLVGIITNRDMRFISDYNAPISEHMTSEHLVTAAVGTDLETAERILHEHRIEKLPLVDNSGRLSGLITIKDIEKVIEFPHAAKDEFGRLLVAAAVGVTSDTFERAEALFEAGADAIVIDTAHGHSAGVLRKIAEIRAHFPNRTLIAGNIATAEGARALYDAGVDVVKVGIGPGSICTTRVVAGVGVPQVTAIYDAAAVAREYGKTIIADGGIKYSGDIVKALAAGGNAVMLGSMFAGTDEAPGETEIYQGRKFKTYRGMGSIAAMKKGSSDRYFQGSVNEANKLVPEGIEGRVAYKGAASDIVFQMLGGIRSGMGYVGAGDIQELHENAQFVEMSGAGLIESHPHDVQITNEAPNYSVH

Sequence of TfIMPDH (P50097 whole entry): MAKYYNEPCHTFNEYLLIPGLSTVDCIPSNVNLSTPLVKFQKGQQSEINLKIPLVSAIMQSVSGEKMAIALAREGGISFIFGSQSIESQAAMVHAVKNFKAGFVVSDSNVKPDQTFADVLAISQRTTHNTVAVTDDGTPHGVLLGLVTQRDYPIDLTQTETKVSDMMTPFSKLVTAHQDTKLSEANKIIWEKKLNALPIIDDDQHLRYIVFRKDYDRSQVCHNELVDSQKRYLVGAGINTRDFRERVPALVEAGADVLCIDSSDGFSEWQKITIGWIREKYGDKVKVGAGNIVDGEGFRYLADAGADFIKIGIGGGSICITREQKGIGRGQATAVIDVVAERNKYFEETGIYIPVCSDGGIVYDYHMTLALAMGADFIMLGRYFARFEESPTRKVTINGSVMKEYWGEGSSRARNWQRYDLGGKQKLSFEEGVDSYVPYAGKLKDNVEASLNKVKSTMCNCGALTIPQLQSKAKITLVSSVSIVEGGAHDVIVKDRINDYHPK
Sequence of EcIMPDH-S250A (P0ADG7 whole entry S250A): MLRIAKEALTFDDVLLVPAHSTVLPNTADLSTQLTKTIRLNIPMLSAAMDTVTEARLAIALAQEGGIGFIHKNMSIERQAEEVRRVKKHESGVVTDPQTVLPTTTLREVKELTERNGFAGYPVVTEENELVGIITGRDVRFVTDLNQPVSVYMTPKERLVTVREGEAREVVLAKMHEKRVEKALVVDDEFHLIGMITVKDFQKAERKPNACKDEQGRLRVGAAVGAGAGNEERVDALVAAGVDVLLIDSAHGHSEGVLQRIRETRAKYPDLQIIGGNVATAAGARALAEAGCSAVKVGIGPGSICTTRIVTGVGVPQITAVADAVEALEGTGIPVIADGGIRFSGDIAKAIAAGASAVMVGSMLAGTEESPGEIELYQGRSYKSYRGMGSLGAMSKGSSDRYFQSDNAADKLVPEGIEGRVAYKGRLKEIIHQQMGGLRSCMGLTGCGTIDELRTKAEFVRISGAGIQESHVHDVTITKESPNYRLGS
Sequence of EcIMPDH-S250A/L444Y (P0ADG7 whole entry S250A/L444Y): as the sequence (P0ADG7 whole entry S250A) above, with L444Y counted along it
Sequence of EcIMPDH (P0ADG7 whole entry): as the sequence (P0ADG7 whole entry S250A) above, with A250S counted along it
Sequence of LdIMPDH (P21620 whole entry): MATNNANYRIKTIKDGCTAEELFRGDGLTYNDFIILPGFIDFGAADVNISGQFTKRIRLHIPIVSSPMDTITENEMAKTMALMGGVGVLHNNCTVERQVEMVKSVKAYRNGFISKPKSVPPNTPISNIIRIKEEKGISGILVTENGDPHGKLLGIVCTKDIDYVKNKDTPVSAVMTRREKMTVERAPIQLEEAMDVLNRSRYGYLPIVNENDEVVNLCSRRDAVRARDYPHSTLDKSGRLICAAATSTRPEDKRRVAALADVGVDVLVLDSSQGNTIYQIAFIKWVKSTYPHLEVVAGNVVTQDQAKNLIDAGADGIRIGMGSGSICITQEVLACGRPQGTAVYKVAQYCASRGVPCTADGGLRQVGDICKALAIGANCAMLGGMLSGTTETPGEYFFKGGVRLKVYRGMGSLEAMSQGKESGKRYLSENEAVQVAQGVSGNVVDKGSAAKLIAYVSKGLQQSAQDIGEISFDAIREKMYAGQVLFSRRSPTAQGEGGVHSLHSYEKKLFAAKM

Nc1ncnc2c1ncn2[C@@H]1O[C@H](COP(=O)(O)OP(=O)(O)O)[C@@H](O)[C@H]1O [ADP]
Ki (EcIMPDH; read-out: Ki ADP, EcIMPDH): 10 ± 2 mM
Ki (HpIMPDH; read-out: Ki ADP, HpIMPDH): 6 ± 0.5 mM
Ki (TfIMPDH; read-out: Ki ADP): 31 ± 2 mM
Ki (EcIMPDH-S250A/L444Y; read-out: Ki ADP, EcIMPDH-S250A/L444Y): 4.1 ± 0.7 mM
Ki (BbIMPDH; read-out: Ki ADP, BbIMPDH): 7.4 ± 0.6 mM
Ki (CpIMPDH; read-out: Ki ADP, ref Riera, et al., 2008): 42 ± 6 mM
Ki (EcIMPDH-S250A; read-out: Ki ADP, EcIMPDH-S250A): 0.1 ± 0.01 mM
Ki (LdIMPDH; read-out: Ki ADP, LdIMPDH): 15 ± 2 mM
Ki (SpIMPDH; read-out: Ki ADP, SpIMPDH): 13 ± 2 mM

COc1c(C)c2c(c(O)c1C/C=C(\C)CCC(=O)O)C(=O)OC2 [mycophenolic acid]
Fold more resistant than human IMPDH2 (TfIMPDH) (TfIMPDH; TfIMPDH vs human IMPDH2, ref Digits and Hedstrom, 2000): 400 fold

NC(=O)c1csc([C@@H]2O[C@H](CO)[C@@H](O)[C@H]2O)n1 [Tzf, tiazofurin]
Ki (EcIMPDH): 5.3 ± 0.6 mM
Ki (HpIMPDH): 1.3 ± 0.1 mM
Ki (TfIMPDH; read-out: Ki Tzf): 69 ± 9 mM
Ki (EcIMPDH-S250A/L444Y): 1.1 ± 0.2 mM
Ki (BbIMPDH): 1.1 ± 0.2 mM
Ki (CpIMPDH; read-out: Ki Tzf, ref Riera, et al., 2008): 1.5 ± 0.1 mM
Ki (EcIMPDH-S250A): 2.5 ± 0.3 mM
Ki (LdIMPDH): 8.3 ± 0.7 mM
Ki (SpIMPDH): 8 ± 1 mM
